Measurements reported in patent US7462324B2, “Measurement device and method for measuring electric signal from biological sample” (Panasonic Corporation, priority 2002, dated 2008).

Tested on: rat artery smooth muscles (SM)
Test: Intracellular potential of a rat artery smooth muscle cell on carbachol administration, voltage clamp with measurement device 10
Assay type: cell-based
Protocol: As the biological sample 21, rat artery smooth muscles (SM) were used. As a solution to be injected into the measurement device 10, DMEM culture medium to which 10% FBS (fetal bovine serum) was added was used. An SM cell was inserted into the microelectrode 1 by performing the same operation as that of EXAMPLE 2, and then an intracellular potential when 100 μM carbachol, which was an analog of acetylcholine, was introduced as a solution was measured by a voltage clamp method.
The results were similar to those obtained by the known intracellular recording method.
FIG. 13 is a histogram of standard deviation per 10 ms before and after a carbachol administration. The mean value and half width of the graph, obtained by approximating the histogram before and after a carbachol administration with a normal distribution are 0.185 and 0.04, respectively, before the administration and 0.545 and 0.21, respectively, after the administration. […] The reason for the increase was that by the administration of carbachol, ion channels of the […] was activated, and changes in conductance due to switching of the activated ion channels is expressed by voltage change. From FIG. 13, it was confirmed that with the measurement device 10, ion channel properties for a nerve stimulator can be determined as in the same manner in the known intracellular recording method.

C[N+](C)(C)CCOC(N)=O [carbachol]
action potential in response to carbachol (100 μM carbachol introduced as a solution, SM cell on microelectrode, DMEM + 10% FBS, FIG. 12): detected | mean value of histogram of standard deviation per 10 ms of the action potential (normal distribution approximation) (after carbachol administration (100 μM), before administration 0.185, FIG. 13): 0.545
